The nature of this series: in vitro drug release from a PBMA-coated stent. The format is physicochemical. Conditions: over 24 hours, everolimus in PBMA drug coat, drug:polymer ratio 1 to 1.25, with 40-μg PBMA topcoat (0.3 micron coating thickness) on 18-mm medium stent. An excerpt: Of import to the present invention is that a polymer's mesh size can be altered by the formation of pores within the polymer itself. One means of accomplishing this is to add such a large concentration of drug to the polymer that the drug phase separates out. Thus, during stent synthesis, drug is released, thereby forming pores within the polymer. However, a topcoat is often added to control drug release and prevent an initial bolus or burst release of drug. Unfortunately, sometimes even the thinnest topcoat that can be applied leads to a drug release that is too slow to be therapeutically effective. One example is everolimus in a PBMA drug coat with a PBMA topcoat. For example, it has been shown that a thin 40-μg PBMA topcoat on an 18-mm medium stent, i.e., a 0.3 micron coating thickness, with a drug:polymer ratio of 1 to 1.25, gave only 7.1% drug release over 24 hours in an in vitro experiment.

As to `CO[C@H]1C[C@@H]2CC[C@@H](C)[C@@](O)(O2)C(=O)C(=O)N2CCCC[C@H]2C(=O)O[C@H]([C@H](C)C[C@@H]2CC[C@@H](OCCO)[C@H](OC)C2)CC(=O)[C@H](C)/C=C(\C)[C@@H](O)[C@@H](OC)C(=O)[C@H](C)C[C@H](C)/C=C/C=C/C=C/1C` [everolimus], the drug release was determined as 7.1%.

The record behind these values is patent publication US20100222875A1, “METHOD FOR FORMING A POROUS STENT COATING” (Abbott Cardiovascular Systems Inc., priority 2006, published 2010).
